Reference: article PMC6474902, “Examination of novel 4-aminoquinoline derivatives designed and synthesized by a hybrid pharmacophore approach to enhance their anticancer activities” (Scientific Reports, 2019)
“Also recorded” adds a separate entry of the source. Read-outs that look alike come from different tables or passages of the source.

Assays:
[1] = system: MDA-MB468; test: SRB antiproliferative/antigrowth assay; format: cell-based, human; conditions: SRB, 48 h post-treatment, mean of triplicates of at least two experiments, read-out: GI50 MB468
Procedure: (§1) The antigrowth effects of 4-piperazinylquinoline sulfonyl analogs on human breast tumor cells was initially evaluated using MDA-MB468 (a PTEN defective, EGFR positive breast adenocarcioma), MDA-MB231 (p53 and pRB mutated, triple-negative breast carcinoma), and MCF7 (p53+/−, invasive ductal breast carcinoma) cell lines. In addition, the cytotoxicity of all the compounds was also evaluated with the 184B5 and MCF10A non-cancer immortalized breast epithelial cell lines, to determine if these newly synthesized compounds have differential cytotoxic effects on cancer and non-cancer cells. The panel of three breast cancer cell lines with different genetic back ground and the well-studied two non-cancer immortalized breast cell lines would provide insights into the efficacy and toxicity of the test compounds in the different genetic background and at different stages of tumor development. The dose response of each cell line was established by determining the number of viable cells after 48 h of continuous drug treatment against seven different concentrations (100 µM to 0.0064 µM) of each compound. The reading of sulphorodamine B (SRB) staining is known to accurately reflect the level of total cellular macromolecules/cell growth/proliferation[6],[23]. […] The data for CQ and cisplatin were included as references. […] The differences in the GI50 values may be attributable to such factors as the nature of the sulfonyl group and the halogen substitution on the 7th position of the 4-piperazinylquinoline ring system, and the genetic and biochemical background of the cell lines.
(§2) Antiproliferative/antigrowth effects were determined by a SRB-based protocol[6],[23]. For a typical screening experiment, 5,000–10,000 cells were inoculated into 100 µL medium per well of a 96-well microtiter plate as described previously. Briefly, after the inoculation, the microtiter plate was incubated at 37 °C, 5% CO2, 95% air and 100% relative humidity for 24 h, prior to addition of experimental drugs. Some of the sample wells were fixed with 25 µL of 50% tricholoroacetic acid (TCA) as a control of the cell population for each cell line at the time of drug addition (Tz). An aliquot of the frozen stock was thawed and diluted to a desired final maximum test-concentration with complete medium. Two to ten-fold serial dilutions were made to provide a total of seven drug concentrations (and a control [C]). Following addition of drugs, the culture plate was incubated for additional 48 h. Cells were fixed in situ by slowly adding 25 µL of ice-cold 50% (w/v) TCA (final concentration, 10% TCA), and were then incubated for 60 min at 4 °C. The supernatant was discarded, and the plate was washed five times with tap water, followed by air-dry. 50 µL of SRB solution at 0.4% (w/v) in 1% acetic acid was added to each well, and the plate was incubated for >30 min at room temperature. Unbound SRB was removed by five washes with tap water, followed by air-drying. The cells “stained” with SRB were solubilized with 10 mM trizma base, and the absorbance was read on an automated plate reader at a wavelength of 515–564 nm. The relative growth rate (%) was calculated for each of the compound concentrations according to the following formula: (Ti−Tz)/(C−Tz)×100
(§3) In the formula, time zero (Tz), control growth (C), and OD for different concentration of tested compounds (Ti). The GI50 for each compound was obtained from a non-linear Sigmoidal dose-response (variable slope) curve which is fitted by GraphPad Prism v.4.03 software. Values were calculated for each of these parameters if the level of activity was reached. However, if the effect was not reached or was exceeded, the value for that parameter was expressed as greater or less than the maximum or minimum concentration tested.

[2] = system: MCF7; test: SRB antiproliferative/antigrowth assay; format: cell-based, human; conditions: SRB, 48 h post-treatment, mean of triplicates of at least two experiments, read-out: GI50 MCF7
Procedure: as §1, §2, §3

[3] = system: MDA-MB231; test: SRB antiproliferative/antigrowth assay; format: cell-based, human; conditions: for GI50: SRB, 48 h post-treatment, mean of triplicates of at least two experiments, read-out: GI50 MB231
Procedure: as §1, §2, §3

[4] = system: MDA-MB231, MDA-MB468, MCF7 breast cancer cells; 184B5 and MCF10A non-cancer breast cells; test: SRB assay, panel of breast cancer and non-cancer breast cell lines; format: cell-based, human; conditions: judged from GI50 values of Table 1
Procedure: as §1, §2, §3

[5] = system: 184B5; test: SRB antiproliferative/antigrowth assay, non-cancer cells; format: cell-based, human; conditions: read-out: GI50 184B5
Procedure: as §1, §2, §3

[6] = system: MCF10A; test: as above; format: cell-based, human; conditions: SRB, 48 h post-treatment, non-cancer breast epithelial cells, read-out: GI50 MCF10A
Procedure: as §1, §2, §3

[7] = Homo sapiens, 184B5, 48 h, SRB, 48 h post-treatment, non-cancer breast epithelial cells

Structure (SMILES) | GI50 ([1]; Homo sapiens, MDA-MB-468, 48 h) [µM] | GI50 ([2]; Homo sapiens, MCF7, 48 h) [µM] | GI50 ([3]; Homo sapiens, MDA-MB-231, 48 h) [µM] | GI50 [5, 7] [µM] | GI50 ([6]; Homo sapiens, MCF-10A, 48 h) [µM] | melting point [°C] | further results
N.N.[Cl][Pt][Cl] [Cisplatin, reference compound] | – | – | – | – | – | – | GI50 [1]: 31 ± 0.5 µM; GI50 [2]: 25.8 ± 0.4 µM; GI50 [3]: 23.7 ± 0.2 µM; preferential antigrowth effect on cancer versus non-cancer cells (in words) [4]: similar; GI50 ([5]; SRB, 48 h post-treatment, non-cancer breast epithelial cells): 25.5 ± 0.4 µM; GI50 [6]: 51.5 ± 0.9 µM
COC(=O)c1sccc1S(=O)(=O)N1CCN(c2ccnc3cc(C(F)(F)F)ccc23)CC1 [Compound 24, 3-[4-(7-Trifluoromethyl-quinolin-4-yl)-piperazine-1-sulfonyl]-thiophene-2-carboxylic acid methyl ester] | 23.9 ± 0.6 | 16 ± 0.2 | 34.7 ± 0.7 | 15.9 ± 0.1 | 15.8 ± 0.1 | 117 to 119 | –
Cc1ccc(S(=O)(=O)NCCCNc2ccnc3cc(Cl)ccc23)cc1 [Compound 26, N-[3-(7-Chloro-quinolin-4-ylamino)-propyl]-4-methyl-benzenesulfonamide] | 5.8 ± 0.4 | 5.2 ± 0.5 | 6.2 ± 0.5 | 9.6 ± 0.5 | 12.2 ± 0.6 | – | preferential antigrowth effect on cancer versus non-cancer cells (in words) [4]: effective and preferential antigrowth effects on cancer cells; also recorded: stronger antigrowth/antiproliferation activity against cancer cells than non-cancer cells
O=S(=O)(NCCCNc1ccnc2cc(Cl)ccc12)c1ccc(-c2ccccc2)cc1 [Compound 27, Biphenyl-4-sulfonic acid [3-(7-chloro-quinolin-4-ylamino)-propyl]-amide] | 4.5 ± 0.4 | 2.5 ± 0.2 | 4.6 ± 0.4 | 2.4 ± 0.1 | 2.6 ± 0.1 | 116 to 118 | –
O=S(=O)(NCCCNc1ccnc2cc(Cl)ccc12)c1ccc(Cl)cc1Cl [Compound 29, 2,4-Dichloro-N-[3-(7-chloro-quinolin-4-ylamino)-propyl]-benzenesulfonamide] | 3.6 ± 0.1 | 4 ± 0.2 | 6.8 ± 0.6 | 3.6 ± 0.2 | 6.8 ± 0.4 | 145 to 147 | –
O=[N+]([O-])c1ccc(S(=O)(=O)NCCCNc2ccnc3cc(Cl)ccc23)c([N+](=O)[O-])c1 [Compound 31, N-[3-(7-Chloro-quinolin-4-ylamino)-propyl]-2,4-dinitro-benzenesulfonamide] | – | – | – | – | – | 238 to 240 | GI50 ([1]; Homo sapiens, MDA-MB-468): 7.4 ± 0.2 µM; GI50 ([2]; Homo sapiens, MCF7): 6.2 ± 0.3 µM; increase in antigrowth activity against MDA-MB231 compared to mono nitro substituted compounds (30 and 39) [3]: 1.7–2.3 fold; GI50 ([3]; Homo sapiens, MDA-MB-231): 8.9 ± 0.7 µM; GI50 ([5]; Homo sapiens, 184B5, 48 h): 9.1 ± 0.6 µM; GI50 ([6]; Homo sapiens, MCF-10A): 19.8 ± 0.9 µM
CS(=O)(=O)NCCCNc1ccnc2cc(C(F)(F)F)ccc12 [Compound 34, N-[3-(7-Trifluoromethyl-quinolin-4-ylamino)-propyl]-methanesulfonamide] | 30.4 ± 1 | 25.3 ± 1.3 | 55.9 ± 1.6 | 59.5 ± 1.6 | 85 ± 1.2 | 171 to 173 | –
O=S(=O)(NCCCNc1ccnc2cc(C(F)(F)F)ccc12)c1ccc(-c2ccccc2)cc1 [Compound 36, Biphenyl-4-sulfonic acid [3-(7-trifluoromethyl-quinolin-4-ylamino)-propyl]-amide] | 4.2 ± 0.2 | 3.6 ± 0.3 | 6 ± 0.4 | 2.8 ± 0.1 | 2.2 ± 0.3 | 110 to 112 | –
O=S(=O)(NCCCNc1ccnc2cc(C(F)(F)F)ccc12)c1ccc(Cl)cc1 [Compound 37, 4-Chloro-N-[3-(7-trifluoromethyl-quinolin-4-ylamino)-propyl]-benzenesulfonamide] | 10.3 ± 0.6 | 5.4 ± 0.3 | 12.8 ± 0.9 | 7.6 ± 0.4 | 17.4 ± 0.1 | 70 to 72 | increase in potency on MDA-MB231 in comparison to methyl substituted compounds (25 and 34) [3]: 3.5–4.4 fold
O=S(=O)(NCCCNc1ccnc2cc(C(F)(F)F)ccc12)c1ccc(Cl)cc1Cl [Compound 38, 2,4-Dichloro-N-[3-(7-trifluoromethyl-quinolin-4-ylamino)-propyl]-benzenesulfonamide] | 3.9 ± 0.1 | 5.2 ± 0.3 | 7 ± 0.6 | 3.2 ± 0.1 | 5.3 ± 0.3 | 117 to 119 | –
O=[N+]([O-])c1cccc(S(=O)(=O)NCCCNc2ccnc3cc(C(F)(F)F)ccc23)c1 [Compound 39, 3-Nitro-N-[3-(7-trifluoromethyl-quinolin-4-ylamino)-propyl]-benzenesulfonamide] | 9.1 ± 0.6 | 8.3 ± 0.5 | 15.7 ± 1 | 8 ± 0.8 | 10.6 ± 0.9 | 98 to 100 | –
CN(C)c1cccc2c(S(=O)(=O)NCCCNc3ccnc4cc(C(F)(F)F)ccc34)cccc12 [Compound 41, 5-Dimethylamino-naphthalene-1-sulfonic acid [3-(7-trifluoromethyl-quinolin-4-ylamino)-propyl]-amide] | 9.7 ± 0.3 | 7.7 ± 0.6 | 14.2 ± 1 | 3.7 ± 0.2 | 6.5 ± 0.3 | 199 to 201 | –
